Measurements from patent US20230278972A1, “SUBSTITUTED HALOALKYL SULFONANILIDE HERBICIDES” (FMC Corporation, priority 2020, published 2023).

Experiments:
Format in all cases: in vivo
kochia (Bassia scoparia) [1] = experiment: Test A preemergence, kochia; conditions: Preemergence; for Kochia plant response rating: 125 g ai/ha, visual injury on 0 to 100 scale (0 no effect, 100 complete control), approximately 10 days; for Plant response rating, Kochia: 500 g ai/ha, 0 to 100 scale (0 no effect, 100 complete control)
Summary of the method: (§1)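 Greenhouse pot test in a loam–sand blend; compounds delivered in a non-phytotoxic solvent carrying a surfactant, applied either as a directed spray to soil at seeding or over seedlings 2 to 10 cm high with one to two leaves.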

corn (Zea mays) = experiment: Test A postemergence, corn; conditions: Postemergence, 0 to 100 scale (0 no effect, 100 complete control); for Plant response rating, Corn: 125 g ai/ha, visual injury approx. 10 days; for Corn plant response rating: 500 g ai/ha, visual injury vs untreated controls after approx. 10 days
Summary of the method: as §1

[2] = tested on: Foxtail, Giant (giant foxtail, Setaria faberi); experiment: Test A postemergence, Foxtail, Giant; conditions: Postemergence, 0 to 100 scale (0 no effect, 100 complete control); for Plant response rating, Foxtail, Giant: 125 g ai/ha, visual injury approx. 10 days; for Foxtail, Giant plant response rating: 500 g ai/ha, visual injury vs untreated controls after approx. 10 days
Summary of the method: as §1

[3] = tested on: blackgrass (Alopecurus myosuroides); experiment: Test A postemergence, blackgrass; conditions: Postemergence, 0 to 100 scale (0 no effect, 100 complete control); for Plant response rating, Blackgrass: 125 g ai/ha, visual injury approx. 10 days; for Blackgrass plant response rating: 500 g ai/ha, visual injury vs untreated controls after approx. 10 days
Summary of the method: as §1

[4] = tested on: pigweed (Amaranthus retroflexus); experiment: Test A postemergence, pigweed; conditions: Postemergence, 0 to 100 scale (0 no effect, 100 complete control); for Plant response rating, Pigweed: 125 g ai/ha, visual injury approx. 10 days; for Pigweed plant response rating: 500 g ai/ha, visual injury vs untreated controls after approx. 10 days
Summary of the method: as §1

[5] = tested on: wheat (Triticum aestivum); experiment: Test A postemergence, wheat; conditions: Postemergence, 0 to 100 scale (0 no effect, 100 complete control); for Plant response rating, Wheat: 125 g ai/ha, visual injury approx. 10 days; for Wheat plant response rating: 500 g ai/ha, visual injury vs untreated controls after approx. 10 days
Summary of the method: (§2)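 Formulated with a surfactant in a non-phytotoxic solvent, compounds are applied to loam–sand pots, either to bare soil immediately after seeding (preemergence) or to seedlings of 2 to 10 cm bearing one to two leaves (postemergence).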

[6] = tested on: Ryegrass, Italian (Italian ryegrass, Lolium multiflorum); experiment: Test A preemergence, Ryegrass, Italian; conditions: Preemergence; for Ryegrass, Italian plant response rating: 125 g ai/ha, visual injury on 0 to 100 scale (0 no effect, 100 complete control), approximately 10 days; for Plant response rating, Ryegrass, Italian: 500 g ai/ha, 0 to 100 scale (0 no effect, 100 complete control)
Summary of the method: as §1

[7] = tested on: ragweed (common ragweed, Ambrosia artemisiifolia); experiment: Test A postemergence, ragweed; conditions: Postemergence, 0 to 100 scale (0 no effect, 100 complete control); for Plant response rating, Ragweed: 125 g ai/ha, visual injury approx. 10 days; for Ragweed plant response rating: 500 g ai/ha, visual injury vs untreated controls after approx. 10 days
Summary of the method: as §1

[8] = tested on: ragweed (common ragweed, Ambrosia artemisiifolia); experiment: Test A preemergence, ragweed; conditions: Preemergence; for Ragweed plant response rating: 125 g ai/ha, visual injury on 0 to 100 scale (0 no effect, 100 complete control), approximately 10 days; for Plant response rating, Ragweed: 500 g ai/ha, 0 to 100 scale (0 no effect, 100 complete control)
Summary of the method: as §1

kochia (Bassia scoparia) [9] = experiment: Test A postemergence, kochia; conditions: Postemergence, 0 to 100 scale (0 no effect, 100 complete control); for Plant response rating, Kochia: 125 g ai/ha, visual injury approx. 10 days; for Kochia plant response rating: 500 g ai/ha, visual injury vs untreated controls after approx. 10 days
Summary of the method: as §1

[10] = tested on: pigweed (Amaranthus retroflexus); experiment: Test A preemergence, pigweed; conditions: for Pigweed plant response rating: 125 g ai/ha, visual injury on 0 to 100 scale (0 no effect, 100 complete control), approximately 10 days; for Plant response rating, Pigweed: 500 g ai/ha, 0 to 100 scale (0 no effect, 100 complete control)
Summary of the method: as §2

[11] = tested on: galium (catchweed bedstraw, Galium aparine); experiment: Test A postemergence, galium; conditions: Postemergence, 0 to 100 scale (0 no effect, 100 complete control); for Plant response rating, Galium: 125 g ai/ha, visual injury approx. 10 days; for Galium plant response rating: 500 g ai/ha, visual injury vs untreated controls after approx. 10 days
Summary of the method: as §2

[12] = tested on: barnyardgrass (Echinochloa crus-galli); experiment: Test A preemergence, barnyardgrass; conditions: Preemergence; for Barnyardgrass plant response rating: 125 g ai/ha, visual injury on 0 to 100 scale (0 no effect, 100 complete control), approximately 10 days; for Plant response rating, Barnyardgrass: 500 g ai/ha, 0 to 100 scale (0 no effect, 100 complete control)
Summary of the method: as §1

[13] = tested on: barnyardgrass (Echinochloa crus-galli); experiment: Test A postemergence, barnyardgrass; conditions: Postemergence, 0 to 100 scale (0 no effect, 100 complete control); for Plant response rating, Barnyardgrass: 125 g ai/ha, visual injury approx. 10 days; for Barnyardgrass plant response rating: 500 g ai/ha, visual injury vs untreated controls after approx. 10 days
Summary of the method: as §2

[14] = tested on: Foxtail, Giant (giant foxtail, Setaria faberi); experiment: Test A preemergence, Foxtail, Giant; conditions: Preemergence; for Foxtail, Giant plant response rating: 125 g ai/ha, visual injury on 0 to 100 scale (0 no effect, 100 complete control), approximately 10 days; for Plant response rating, Foxtail, Giant: 500 g ai/ha, 0 to 100 scale (0 no effect, 100 complete control)
Summary of the method: as §1

[15] = tested on: Ryegrass, Italian (Italian ryegrass, Lolium multiflorum); experiment: Test A postemergence, Ryegrass, Italian; conditions: Postemergence, 0 to 100 scale (0 no effect, 100 complete control); for Plant response rating, Ryegrass, Italian: 125 g ai/ha, visual injury approx. 10 days; for Ryegrass, Italian plant response rating: 500 g ai/ha, visual injury vs untreated controls after approx. 10 days
Summary of the method: as §1

SMILES	Kochia plant response rating (kochia (Bassia scoparia) [1])	Plant response rating, Kochia (kochia (Bassia scoparia) [1])	Plant response rating, Corn (corn (Zea mays))	Corn plant response rating (corn (Zea mays))	Plant response rating, Foxtail, Giant [2]	Foxtail, Giant plant response rating [2]	Plant response rating, Blackgrass [3]	Blackgrass plant response rating [3]	Plant response rating, Pigweed [4]	Pigweed plant response rating [4]	Plant response rating, Wheat [5]	Wheat plant response rating [5]	Ryegrass, Italian plant response rating [6]	Plant response rating, Ryegrass, Italian [6]	Plant response rating, Ragweed [7]	Ragweed plant response rating [7]	Ragweed plant response rating [8]	Plant response rating, Ragweed [8]	Plant response rating, Kochia (kochia (Bassia scoparia) [9])	Kochia plant response rating (kochia (Bassia scoparia) [9])	also measured
Cc1cc(C)c(-c2ccnn(CC(C)C)c2=O)cc1NS(=O)(=O)C(F)(F)F [Compound 77]	0	0	0	60	0	40	0	0	0	0	0	70	0	90	0	10	0	20	0	10	Pigweed plant response rating [10]: 20; Plant response rating, Pigweed [10]: 30; Plant response rating, Galium [11]: 0; Galium plant response rating [11]: 40; Barnyardgrass plant response rating [12]: 90; Plant response rating, Barnyardgrass [12]: 90; Plant response rating, Barnyardgrass [13]: 0; Barnyardgrass plant response rating [13]: 20; Foxtail, Giant plant response rating [14]: 90; Plant response rating, Foxtail, Giant [14]: 100; Plant response rating, Ryegrass, Italian [15]: 0; Ryegrass, Italian plant response rating [15]: 0
Cc1cc(C)c(-c2ccnn(C(C)C)c2=O)cc1NS(=O)(=O)C(F)(F)F [Compound 78]	0	60	0	50	70	90	0	30	0	50	0	70	100	100	0	40	80	90	0	20	Pigweed plant response rating [10]: 30; Plant response rating, Pigweed [10]: 90; Plant response rating, Galium [11]: 60; Galium plant response rating [11]: 90; Barnyardgrass plant response rating [12]: 90; Plant response rating, Barnyardgrass [12]: 100; Plant response rating, Barnyardgrass [13]: 40; Barnyardgrass plant response rating [13]: 70; Foxtail, Giant plant response rating [14]: 100; Plant response rating, Foxtail, Giant [14]: 100; Plant response rating, Ryegrass, Italian [15]: 40; Ryegrass, Italian plant response rating [15]: 60
CCn1nccc(-c2cc(NS(=O)(=O)C(F)(F)F)c(C)cc2C)c1=O [Compound 79]	70	90	10	70	90	90	30	30	30	80	70	80	90	100	30	80	80	90	40	70	Pigweed plant response rating [10]: 90; Plant response rating, Pigweed [10]: 100; Plant response rating, Galium [11]: 90; Galium plant response rating [11]: 90; Barnyardgrass plant response rating [12]: 100; Plant response rating, Barnyardgrass [12]: 100; Plant response rating, Barnyardgrass [13]: 80; Barnyardgrass plant response rating [13]: 90; Foxtail, Giant plant response rating [14]: 100; Plant response rating, Foxtail, Giant [14]: 100; Plant response rating, Ryegrass, Italian [15]: 40; Ryegrass, Italian plant response rating [15]: 80
Cc1cc(C)c(-c2ccnn(C)c2=O)cc1NS(=O)(=O)C(F)(F)F [Compound 80]	80	80	20	80	90	90	60	100	70	70	60	80	90	90	90	90	70	90	40	70	Pigweed plant response rating [10]: 60; Plant response rating, Pigweed [10]: 90; Plant response rating, Galium [11]: 90; Galium plant response rating [11]: 90; Barnyardgrass plant response rating [12]: 90; Plant response rating, Barnyardgrass [12]: 90; Plant response rating, Barnyardgrass [13]: 70; Barnyardgrass plant response rating [13]: 90; Foxtail, Giant plant response rating [14]: 90; Plant response rating, Foxtail, Giant [14]: 100; Plant response rating, Ryegrass, Italian [15]: 70; Ryegrass, Italian plant response rating [15]: 80
